Reference: US20220281876A1, “DEGRADATION OF BRUTON'S TYROSINE KINASE (BTK) BY CONJUGATION OF BTK INHIBITORS WITH E3 LIGASE LIGAND AND METHODS OF USE” (BEIGENE, LTD., priority 2019, published 2022)

Each compound was assayed against T1, BTK (Homo sapiens, UniProt Q06187) (assay: BTK cell degradation in Ramos cells (total BTK ELISA)). Settings: 16 h incubation, FastScan total BTK ELISA.
T1 construct: endogenous in cells; host or cells: Ramos cells
Type: cell-based
Experimental: Ramos cells are treated with compounds diluted in 0.1% DMSO, dilution is done according to the following protocol: (1) make 1000x stock solution in DMSO from 10 mM by 5-fold dilution, total 7 doses were included; (2) make 10x solution in cell culture medium by transferring 1 ul 1000x stock solution into 99 ul medium; (3) 11 ul of 10× solution is added to cells and incubate for 16 h.
Cells in 96 well plate are harvested by centrifugation (1200 rpm), and wash once with ice-cold PBS. Then, 100 ul 1×cell extraction buffer is added in each well. The cells are placed on a shaker for 20 min at 4° C.; 5 ul lysate is transferred to 45 ul of 1×cell extraction buffer in ELISA plate, and 50 ul of the antibody cocktail is added in each well; seal the plate and incubate 1 hour at room temperature on a plate shaker; medium is discarded from the plate, tap the plated on a paper towel, wash 3×200 ul ELISA wash buffer; add 100 ul of TMB to each well and incubate the plate in the dark for 15 min at room temperature on a shaker; add 100 ul of STOP solution to each well; read absorbance at 450 nm. The BTK ELISA assay was performed using FastScan total BTK ELISA kit (Cell Signaling Cat #36609).

T1 sequence (Q06187 whole entry): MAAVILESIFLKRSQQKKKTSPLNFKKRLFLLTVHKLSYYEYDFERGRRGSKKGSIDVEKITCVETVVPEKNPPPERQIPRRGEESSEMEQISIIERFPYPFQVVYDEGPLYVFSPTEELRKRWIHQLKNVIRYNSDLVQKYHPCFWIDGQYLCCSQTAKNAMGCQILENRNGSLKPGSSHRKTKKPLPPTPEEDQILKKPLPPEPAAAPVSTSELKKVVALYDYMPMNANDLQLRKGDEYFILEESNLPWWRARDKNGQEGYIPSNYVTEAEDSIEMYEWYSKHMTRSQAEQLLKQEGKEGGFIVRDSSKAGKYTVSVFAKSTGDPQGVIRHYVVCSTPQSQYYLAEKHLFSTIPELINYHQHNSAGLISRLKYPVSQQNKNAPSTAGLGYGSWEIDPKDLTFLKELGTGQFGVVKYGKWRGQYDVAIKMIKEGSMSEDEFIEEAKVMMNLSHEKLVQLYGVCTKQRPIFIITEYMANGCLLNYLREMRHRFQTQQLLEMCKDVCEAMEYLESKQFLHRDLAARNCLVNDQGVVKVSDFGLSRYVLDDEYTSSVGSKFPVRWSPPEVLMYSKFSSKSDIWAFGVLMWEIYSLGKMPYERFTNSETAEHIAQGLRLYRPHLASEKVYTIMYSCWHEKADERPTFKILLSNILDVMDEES

| DC50 | Structure (SMILES) |
| --- | --- |
| 74 nM | NC(=O)c1c(-c2ccc(Oc3ccccc3)cc2)nn2c1NCC[C@H]2C1CCN(C(=O)CCc2ccc(N3CCN(c4ccc5c(c4)C(=O)N(C4CCC(=O)NC4=O)C5=O)CC3)cc2)CC1 (stereo partly drawn) [Example 40, (7S)-7-(1-(3-(4-(4-(2-(2,6-dioxopiperidin-3-yl)-1,3-dioxoisoindolin-5-yl)piperazin-1-yl)phenyl)propanoyl)piperidin-4-yl)-2-(4-phenoxyphenyl)-4,5,6,7-tetrahydropyrazolo[1,5-a]pyrimidine-3-carboxamide] |
| 624 nM | NC(=O)c1c(-c2ccc(Oc3ccccc3)cc2)nn2c1NCC[C@H]2C1CCN(C(=O)COCCOCCNC(=O)CCCN2CCN(c3ccc4c(c3)C(=O)N(C3CCC(=O)NC3=O)C4=O)CC2)CC1 (stereo partly drawn) [Example 42, (7S)-7-(1-(2-(2-(2-(4-(4-(2-(2,6-dioxopiperidin-3-yl)-1,3-dioxoisoindolin-5-yl)piperazin-1-yl)butanamido)ethoxy)ethoxy)acetyl)piperidin-4-yl)-2-(4-phenoxyphenyl)-4,5,6,7-tetrahydropyrazolo[1,5-a]pyrimidine-3-carboxamide] |
| > 10000 nM | NC(=O)c1c(-c2ccc(Oc3ccccc3)cc2)nn2c1NCC[C@H]2C1CCN(C2CCN(Cc3ccc(C(=O)NCCNc4cccc5c4C(=O)N(C4CCC(=O)NC4=O)C5=O)cc3)CC2)CC1 (stereo partly drawn) [Example 43, (7S)-7-(1′-(4-((2-((2-(2,6-dioxopiperidin-3-yl)-1,3-dioxoisoindolin-4-yl)amino)ethyl)carbamoyl)benzyl)-[1, 4′-bipiperidin]-4-yl)-2-(4-phenoxyphenyl)-4,5,6,7-tetrahydropyrazolo[1,5-a]pyrimidine-3-carboxamide] |
| > 10000 nM | NC(=O)c1c(-c2ccc(Oc3ccccc3)cc2)nn2c1NCC[C@H]2C1CCN(C(=O)CCCc2ccc(N3CCN(c4ccc5c(c4)C(=O)N(C4CCC(=O)NC4=O)C5=O)CC3)cc2)CC1 (stereo partly drawn) [Example 44, (7S)-7-(1-(4-(4-(4-(2-(2,6-dioxopiperidin-3-yl)-1,3-dioxoisoindolin-5-yl)piperazin-1-yl)phenyl)butanoyl)piperidin-4-yl)-2-(4-phenoxyphenyl)-4,5,6,7-tetrahydropyrazolo[1,5-a]pyrimidine-3-carboxamide] |
| 382 nM | NC(=O)c1c(-c2ccc(Oc3ccccc3)cc2)nn2c1NCC[C@H]2C1CCN(C(=O)CCN2CCN(c3ccc(CNC(=O)CNc4cccc5c4CN(C4CCC(=O)NC4=O)C5=O)cc3)CC2)CC1 (stereo partly drawn) [Example 45, (7S)-7-(1-(3-(4-(4-((2-((2-(2,6-dioxopiperidin-3-yl)-1-oxoisoindolin-4-yl)amino)acetamido)methyl)phenyl)piperazin-1-yl)propanoyl)piperidin-4-yl)-2-(4-phenoxyphenyl)-4,5,6,7-tetrahydropyrazolo[1,5-a]pyrimidine-3-carboxamide] |
| 198 nM | CN(C/C=C/C(=O)N1CCC([C@@H]2CCNc3c(C(N)=O)c(-c4ccc(Oc5ccccc5)cc4)nn32)CC1)CCCCCNc1cccc2c1CN(C1CCC(=O)NC1=O)C2=O (stereo partly drawn) [Example 46, (7S)-7-(1-((E)-4-((5-((2-(2,6-dioxopiperidin-3-yl)-1-oxoisoindolin-4-yl)amino)pentyl)(methyl)amino)but-2-enoyl)piperidin-4-yl)-2-(4-phenoxyphenyl)-4,5,6,7-tetrahydropyrazolo[1,5-a]pyrimidine-3-carboxamide] |
| 315 nM | CN(C/C=C/C(=O)N1CCC([C@@H]2CCNc3c(C(N)=O)c(-c4ccc(Oc5ccccc5)cc4)nn32)CC1)CCCCCCNc1cccc2c1CN(C1CCC(=O)NC1=O)C2=O (stereo partly drawn) [Example 47, (7S)-7-(1-((E)-4-((6-((2-(2,6-dioxopiperidin-3-yl)-1-oxoisoindolin-4-yl)amino)hexyl)(methyl)amino)but-2-enoyl)piperidin-4-yl)-2-(4-phenoxyphenyl)-4,5,6,7-tetrahydropyrazolo[1,5-a]pyrimidine-3-carboxamide] |
| > 10000 nM | CN(/C=C/C(=O)N1CCC([C@@H]2CCNc3c(C(N)=O)c(-c4ccc(Oc5ccccc5)cc4)nn32)CC1)CCNc1cccc2c1C(=O)N(C1CCC(=O)NC1=O)C2=O (stereo partly drawn) [Example 49, (7S)-7-(1-((E)-3-((2-((2-(2,6-dioxopiperidin-3-yl)-1,3-dioxoisoindolin-4-yl)amino)ethyl)(methyl)amino)acryloyl)piperidin-4-yl)-2-(4-phenoxyphenyl)-4,5,6,7-tetrahydropyrazolo[1,5-a]pyrimidine-3-carboxamide] |
| > 10000 nM | CN(C/C=C/C(=O)N1CCC([C@@H]2CCNc3c(C(N)=O)c(-c4ccc(Oc5ccccc5)cc4)nn32)CC1)CCCCCCN1C(=O)CCC(N2C(=O)c3cccc(N)c3C2=O)C1=O (stereo partly drawn) [Example 50, (7S)-7-(1-((E)-4-((6-(3-(4-amino-1,3-dioxoisoindolin-2-yl)-2,6-dioxopiperidin-1-yl)hexyl)(methyl)amino)but-2-enoyl)piperidin-4-yl)-2-(4-phenoxyphenyl)-4,5,6,7-tetrahydropyrazolo[1,5-a]pyrimidine-3-carboxamide] |
| > 10000 nM | CN(C/C=C/C(=O)N1CCC([C@@H]2CCNc3c(C(N)=O)c(-c4ccc(Oc5ccccc5)cc4)nn32)CC1)CCCCCCN1C(=O)CCC(N2Cc3c(N)cccc3C2=O)C1=O (stereo partly drawn) [Example 51, (7S)-7-(1-((E)-4-((6-(3-(4-amino-1-oxoisoindolin-2-yl)-2,6-dioxopiperidin-1-yl)hexyl)(methyl)amino)but-2-enoyl)piperidin-4-yl)-2-(4-phenoxyphenyl)-4,5,6,7-tetrahydropyrazolo[1,5-a]pyrimidine-3-carboxamide] |
| 144 nM | CN(C/C=C/C(=O)N1CCC([C@@H]2CCNc3c(C(N)=O)c(-c4ccc(Oc5ccccc5)cc4)nn32)CC1)CCOCCOCCOCCN1C(=O)CCC(N2Cc3c(N)cccc3C2=O)C1=O (stereo partly drawn) [Example 52, (7S)-7-(1-((E)-1-(3-(4-amino-1-oxoisoindolin-2-yl)-2,6-dioxopiperidin-1-yl)-12-methyl-3,6,9-trioxa-12-azahexadec-14-en-16-oyl)piperidin-4-yl)-2-(4-phenoxyphenyl)-4,5,6,7-tetrahydropyrazolo[1,5-a]pyrimidine-3-carboxamide] |
| 428 nM | CN(C/C=C/C(=O)N1CCC([C@@H]2CCNc3c(C(N)=O)c(-c4ccc(Oc5ccccc5)cc4)nn32)CC1)CCCN1C(=O)CCC(N2Cc3c(N)cccc3C2=O)C1=O (stereo partly drawn) [Example 54, (7S)-7-(1-((E)-4-((3-(3-(4-amino-1-oxoisoindolin-2-yl)-2,6-dioxopiperidin-1-yl)propyl)(methyl)amino)but-2-enoyl)piperidin-4-yl)-2-(4-phenoxyphenyl)-4,5,6,7-tetrahydropyrazolo[1,5-a]pyrimidine-3-carboxamide] |
| 382 nM | CN(C/C=C/C(=O)N1CCC([C@@H]2CCNc3c(C(N)=O)c(-c4ccc(Oc5ccccc5)cc4)nn32)CC1)CCOCCOCCN1C(=O)CCC(N2Cc3c(N)cccc3C2=O)C1=O (stereo partly drawn) [Example 55, (7S)-7-(1-((E)-4-((2-(2-(2-(3-(4-amino-1-oxoisoindolin-2-yl)-2,6-dioxopiperidin-1-yl)ethoxy)ethoxy)ethyl)(methyl)amino)but-2-enoyl)piperidin-4-yl)-2-(4-phenoxyphenyl)-4,5,6,7-tetrahydropyrazolo[1,5-a]pyrimidine-3-carboxamide] |
| 2360 nM | NC(=O)c1c(-c2ccc(Oc3ccccc3)cc2)nn2c1NCC[C@H]2C1CCN(C(=O)CCN2CCN(c3ccc(CNC(=O)CCN4C(=O)CCC(N5Cc6c(N)cccc6C5=O)C4=O)cc3)CC2)CC1 (stereo partly drawn) [Example 56, (7S)-7-(1-(3-(4-(4-((3-(3-(4-amino-1-oxoisoindolin-2-yl)-2,6-dioxopiperidin-1-yl)propanamido)methyl)phenyl)piperazin-1-yl)propanoyl)piperidin-4-yl)-2-(4-phenoxyphenyl)-4,5,6,7-tetrahydropyrazolo[1,5-a]pyrimidine-3-carboxamide] |
| > 10000 nM | NC(=O)c1c(-c2ccc(Oc3ccccc3)cc2)nn2c1NCC[C@H]2C1CCN(C(=O)CCc2ccc(NC(=O)CNc3ccc4c(c3)C(=O)N(C3CCC(=O)NC3=O)C4=O)cc2)CC1 (stereo partly drawn) [Example 57, (7S)-7-(1-(3-(4-(2-((2-(2,6-dioxopiperidin-3-yl)-1,3-dioxoisoindolin-5-yl)amino)acetamido)phenyl)propanoyl)piperidin-4-yl)-2-(4-phenoxyphenyl)-4,5,6,7-tetrahydropyrazolo[1,5-a] pyrimidine-3-carboxamide] |
| 28 nM | NC(=O)c1c(-c2ccc(Oc3ccccc3)cc2)nn2c1NCC[C@H]2C1CCN(C(=O)CCCc2ccc(NC(=O)CNc3ccc4c(c3)C(=O)N(C3CCC(=O)NC3=O)C4=O)cc2)CC1 (stereo partly drawn) [Example 58, (7S)-7-(1-(4-(4-(2-((2-(2,6-dioxopiperidin-3-yl)-1,3-dioxoisoindolin-5-yl)amino)acetamido)phenyl)butanoyl)piperidin-4-yl)-2-(4-phenoxyphenyl)-4,5,6,7-tetrahydropyrazolo[1,5-a] pyrimidine-3-carboxamide] |
| 2.9 nM | NC(=O)c1c(-c2ccc(Oc3ccccc3)cc2)nn2c1NCC[C@H]2C1CCN(C(=O)CCN2CCN(C(=O)CNc3ccc4c(c3)C(=O)N(C3CCC(=O)NC3=O)C4=O)CC2)CC1 (stereo partly drawn) [Example 63, (7S)-7-(1-(3-(4-((2-(2,6-dioxopiperidin-3-yl)-1,3-dioxoisoindolin-5-yl)glycyl)piperazin-1-yl)propanoyl)piperidin-4-yl)-2-(4-phenoxyphenyl)-4,5,6,7-tetrahydropyrazolo[1,5-a]pyrimidine-3-carboxamide] |
